# Measured values as given in US20080311126A1, “Antisense Oligonucleotides Directed to Ribonucleotide Reducatase R2 and Uses Thereof in Combination Therapies for the Treatment of Cancer” (Genesense Technologies, Inc, priority 2004, published 2008).
# Experiments:
# [1] = tested on: SK-OV-3 human ovary adenocarcinoma cells; experiment: SK-OV-3 ovary tumour xenograft in CD-1 nude mice; assay type: in vivo; settings: SK-OV-3 (ovary); Mouse CD-1
# Procedure: SK-OV-3 human ovary adenocarcinoma cells (1×10^7 cells in 100 μl of PBS) were subcutaneously injected into the right flank of 6-7 weeks old female CD-1 nude mice. After the size of tumour reached an approximate volume of 100 mm^3, 6 days post tumour cell injection, SEQ ID NO:1 was administered by bolus infusion into the tail vein every other day at 10 mg/kg 17 times. Control animals received saline alone for the same period. Antitumour effect of SEQ ID NO: 1 was further compared to that of taxol or cisplatin alone or in combination. Taxol was administered intravenously once a week for first three weeks and intraperitoneally once a week for next two weeks at a dose of 10 mg/kg. Cisplatin was administered intravenously once a week for first three weeks and intraperitoneally once a week for next two weeks at a dose of 4 mg/kg. All treatments were stopped at day 40. Antitumour activities were estimated by the inhibition of tumour volume, which was measured with caliper. Each point represents mean tumour volume calculated from 9 animals per experimental group.
# [2] = tested on: MDA-CDDP-S4 human Cisplatin-resistant breast adenocarcinoma cells; experiment: MDA-CDDP-S4 Cisplatin-resistant breast adenocarcinoma, fat pad injection in SCID mice; assay type: in vivo; settings: for Tumour weight as % of saline control: MDA-CDDP-S4 (breast), Cisplatin resistance, SCID
# Procedure: MDA-CDDP-S4 human in vivo-selected Cisplatin-resistant breast adenocarcinoma cells (4×10^6 cells in 100 μl of PBS) were injected into the fat pad (inside of right leg) of 6-7 weeks old female SCID mice. After the size of tumour reached an approximate volume of 100 mm^3, 7 days post tumour cell injection, SEQ ID NO:1 was administered by bolus infusion into the tail vein every other day at 10 mg/kg 9 times. Control animals received saline alone for the same period. Antitumour effect of SEQ ID NO: 1 was further compared to that of Cisplatin or Taxol alone. Cisplatin was adminstered intravenously once a week for three weeks at a dose of 4 mg/kg. Taxol was administered intravenously once a week for three weeks at a dose of 10 mg/kg. Antitumour activities were estimated by the inhibition of tumour volume, which was measured with caliper. Each point represents mean tumour volume calculated from 10 animals per experimental group. […] As expected, treatment with Cisplatin during the same period was ineffective against Cisplatin-resistant tumour.
# MDA-CDDP-S4 human in vivo-selected Cisplatin-resistant breast adenocarcinoma cells (4×10^6 cells in 100 μl of PBS) were injected into the fat pad (inside of right leg) of 6-7 weeks old female CB-17 SCID mice. After the size of tumour reached an approximate volume of 100 mm^3, 9 days post tumour cell injection, SEQ ID NO:1 was administered by bolus infusion into the tail vein every other day at 10 mg/kg. Control animals received saline alone for the same period. Antitumour effect of SEQ ID NO:1 was further compared to that of Taxol alone and in combination. Taxol was administered i.p. once a week at a dose of 10 mg/kg. Antitumour activities were estimated by the inhibition of tumour volume FIG. 22A), which was measured with calipers. Each point represents mean tumour volume calculated from 10 animals per experimental group. Animals were sacrificed and tumour weights taken at the end of the study (FIG. 22C). […] This study was repeated with similar results (FIG. 22B).
# [3] = tested on: Human taxol-resistant promyelocytic leukaemia cells (HL-60); experiment: HL-60 taxol-resistant promyelocytic leukaemia xenograft in SCID mice; assay type: in vivo
# Procedure: Human taxol-resistant promyelocytic leukaemia cells (HL-60) (7×10^6 cells in 100 μl of PBS) were injected into the right flank of 6-7 weeks old female SCID mice. After the size of tumour reached an approximate volume of 100 mm^3, 10 days post tumour cell injection, SEQ ID NO:1 was administered by bolus infusion into the tail vein every other day at 10 mg/kg. Control animals received saline alone for the same period. The anti-tumour effect of SEQ ID NO:1 was further compared to that of taxol. Taxol was administered i.p. once a week at a dose of 10 mg/kg. Anti-tumour activity was estimated by the inhibition of tumour volume, which was measured with caliper. Each point represents mean tumour volume calculated from 10 animals per experimental group. In addition animals were sacrificed and tumour weights taken at the end of the study.
# [4] = tested on: MDA-MB-231 human breast cancer cells; experiment: MDA-MB-231 breast tumour xenograft in CD-1 nude mice; assay type: in vivo; settings: MDA-MB-231 (breast); Mouse CD-1
# Procedure: MDA-MB-231 human breast cancer cells (1×10^7 cells in 100 μl of PBS) were subcutaneously injected into the right flank of 6-7 weeks old female CD-1 nude mice. After the size of tumour reached an approximate volume of 100 mm^3, 5 days post tumour cell injection, SEQ ID NO:1, or the scrambled control oligonucleotide (SEQ ID NO:3) were administered by bolus infusion into the tail vein every other day at 10 mg/kg. Control animals received saline alone for the same period. Antitumour effect of SEQ ID NO:1 was further compared to that of taxol or doxorubicin alone or in combination. Taxol was administered intravenously once a week at a dose of 10 mg/kg for three (FIG. 17A) or four weeks (FIG. 17C). Doxorubicin was administered intravenously once a week at a dose of 5 mg/kg for first three weeks (FIG. 17A) or for two weeks (FIG. 17C). All treatments were stopped at day 33 (FIG. 17A) or at day 26 (FIG. 17C), respectively. A day after the last treatment, tumours were excised from the animals and their weights were measured. […] In FIG. 17C, antitumour activities were estimated by the inhibition of tumour volume, which was measured with calipers. Each point represents mean tumour volume calculated from 10 animals per experimental group.
# [5] = tested on: MDA-MB435-To.1 human Taxol-resistant breast adenocarcinoma cells; experiment: MDA-MB435-To.1 Taxol-resistant breast adenocarcinoma, fat pad injection in SCID mice; assay type: in vivo; parameters: Tumour weight as % of saline control: concentration or dose not given beside the values; settings: for Tumour weight as % of saline control: MDA-MB435-To.1 (breast), Taxol resistance
# Procedure: MDA-MB435-To.1 human Taxol-resistant breast adenocarcinoma cells (4×10^6 cells in […] of PBS) were injected into the fat pad (inside of right leg) of 6-7 weeks old female SCID mice. After the size of tumour reached an approximate volume of 100 mm^3, 20 days post tumour cell injection, SEQ ID NO:1 was administered by bolus infusion into the tail vein every other day at 10 mg/kg 15 times. Control animals received saline alone for the same period. Antitumour effect of SEQ ID NO:1 was further compared to that of Cisplatin or Taxol alone. Cisplatin was administered intravenously once a week for four weeks at a dose of 4 mg/kg. Taxol was administered intravenously once a week for four weeks at a dose of 20 mg/kg.
# Antitumour activities were estimated by the inhibition of tumour volume, which was measured with caliper. Bach point represents mean tumour volume calculated from 9-10 animals per experimental group. […] As expected, treatment with Taxol during the same period was ineffective against Taxol-resistant tumour.
# MDA-MB435-To.1 human Taxol-resistant breast adenocarcinoma cells (4×10^6 cells in 100 μl of PBS) were injected into the fat pad (inside of right leg) of 6-7 weeks old female CB-17 SCID mice. After the size of tumour reached an approximate volume of 100 mm^3, 17 days post tumour cell injection, SEQ ID NO:1 was administered by bolus infusion into the tail vein every other day at 10 mg/kg. Control animals received saline alone for the same period. Antitumour effect of SEQ ID NO:1 was compared to that of Cisplatin alone and in combination. Cisplatin was administered intravenously once a week for four weeks at a dose of 4 mg/kg. Antitumour activities were estimated by the inhibition of tumour volume, which was measured with caliper. Each point represents mean tumour volume calculated from 10 animals per experimental group. At the end of the study the animals were sacrificed and tumours weighed.
# [6] = tested on: BxPC-3 human pancreatic carcinoma cells; experiment: BxPC-3 gemcitabine resistant pancreatic carcinoma xenograft in CD-1 nude mice; assay type: in vivo
# Procedure: BxPC-3 human pancreatic carcinoma cells (3×10^6 cells in 100 μl of PBS) were subcutaneously injected into the right flank of 6-7 weeks old female CD-1 nude mice. BxPC-3 is a gemcitabine resistant call line. After the size of tumour reached an approximate volume of 100 mm^3, 21 days post tumour cell injection, SEQ ID NO:1 was administered by bolus infusion into the tail vein every other day at 10 mg/kg 17 times. Control animals received saline alone for the same period. Antitumour effect of SEQ ID NO:1 was further compared to that of Gemcitabine. Gemcitabine was administered intravenously every three days at a dose of 100 mg/kg. Antitumour activities were estimated by the inhibition of tumour volume, which was measured with caliper. Each point represents mean tumour volume calculated from 10 animals per experimental group. […] As expected, treatment with Gemcitabine during the same period was ineffective against Gemcitabine-resistant tumour (FIGS. 19A & B).
# [7] = tested on: Hela S3 human cervix epitheloid carcinoma cells; experiment: Hela S3 hydroxyurea resistant cervix carcinoma xenograft in SCID mice; assay type: in vivo; settings: Hela S3 (cervix), hydroxyurea resistance; SCID
# Procedure: Hela S3 human cervix epitheloid carcinoma cells (5×10^5 cells in 100 μl of PBS) were subcutaneously injected into the right flank of 6-7 weeks old female SCID mice. Hela S3 is a hydroxyurea resistant cell line. After the size of tumour reached an approximate volume of 100 mm^3, 3 days post tumour cell injection, SEQ ID NO:1 was administered by bolus infusion into the tail vein every other day at 10 mg/kg 6 times. Control animals received saline alone for the same period. Antitumour effect of SEQ ID NO:1 was further compared to that of Hydroxyurea or Cisplatin alone or in combination. Hydroxyurea was administered intraperitoneally every day at a dose of 250 mg/kg for 10 days. Cisplatin was administered intravenously once a week for three weeks at a dose of 4 mg/kg. Antitumour activities were estimated by the inhibition of tumour volume, which was measured with caliper. Each point represents mean tumour volume calculated from 10 animals per experimental group. […] As expected, treatment with Hydroxyurea during the same period was ineffective against Hydroxyurea-resistant tumour.
# renal cell carcinoma = settings: patients with renal cell carcinoma; cited from earlier work
# [8] = study with Taxol and Cisplatin alone
compound,measurement,setting,value
"CC(=O)O[C@H]1C(=O)[C@@]2(C)[C@H]([C@H](OC(=O)c3ccccc3)[C@]3(O)C[C@H](OC(=O)[C@H](O)[C@@H](NC(=O)c4ccccc4)c4ccccc4)C(C)=C1C3(C)C)[C@]1(OC(C)=O)CO[C@@H]1C[C@@H]2O [Taxol, Paclitaxel, reference compound]",tumour volume data as percentage of saline control,[1],49%
same,Tumour weight as % of saline control,"[2]; Taxol combination study, first of two value columns",26%
same,Tumour weight as % of saline control,"[2]; Taxol combination study, second of two value columns",61%
same,Tumour weight as % of saline control,[2]; [8],32%
same,Tumour weight as % of saline control,"[3]; HL-60 (leukemia), Taxol resistance, SCID",119%
same,"anti-tumour effect (tumour volume, tumour weight)","[3]; SEQ ID NO:1 10 mg/kg every other day, Taxol 10 mg/kg i.p. weekly",no effect on tumour growth or weight
same,Tumour weight as % of saline control,[4],58%
same,antitumour effect (tumour volume),"[5]; Example 13.5, SEQ ID NO:1 10 mg/kg 15 times, Cisplatin 4 mg/kg, Taxol 20 mg/kg i.v. weekly for four weeks",ineffective
same,Tumour weight as % of saline control,[5]; SCID,109%
"Nc1ccn([C@@H]2O[C@H](CO)[C@@H](O)C2(F)F)c(=O)n1 [Gemcitabine, reference compound]",Tumour weight as % of saline control,"[6]; BxPC-3 (pancreatic), Gemcitabine resistance, CD-1",83%
same,antitumour effect (tumour volume),"[6]; SEQ ID NO:1 10 mg/kg 17 times i.v., Gemcitabine 100 mg/kg i.v. every three days",ineffective
"N.N.[Cl][Pt][Cl] [Cisplatin, reference compound]",tumour volume data as percentage of saline control,[1],67%
same,antitumour effect (tumour volume),"[2]; Example 13.3, SEQ ID NO:1 10 mg/kg 9 times, Cisplatin 4 mg/kg, Taxol 10 mg/kg i.v. weekly for three weeks",ineffective
same,Tumour weight as % of saline control,[2]; [8],78%
same,Tumour weight as % of saline control,[7],63%
same,Tumour weight as % of saline control,[5]; CB-17/SCID,56%
same,Tumour weight as % of saline control,[5]; SCID,69%
"CC(=O)O[C@]1(C(C)=O)CC[C@H]2[C@@H]3C[C@H](C)C4=CC(=O)CC[C@]4(C)[C@H]3CC[C@@]21C [MPA, medroxyprogesterone acetate, reference compound]",1-year survival,renal cell carcinoma,31%
